Values quoted from earlier work in patent publication US11375717B2, “Combinations of acaricides and insect growth regulators for control of fleas without emesis in animals” (Piedmont Animal Health Inc., priority 2017, dated 2022).

Conditions: 30 mg/kg in cats and 10 mg/kg in dogs

For `O=C(NC(=O)c1c(F)cccc1F)Nc1cc(Cl)c(OC(F)(F)C(F)C(F)(F)F)cc1Cl` (stereo not shown) [Lufenuron], the Emesis is listed as “common side effect”.
